Reference: publication PMC6149683, “In Vitro Investigation of the Interaction of Tolbutamide and Losartan with Human Serum Albumin in Hyperglycemia States” (Molecules : A Journal of Synthetic Chemistry and Natural …, 2017)
Where two headings read alike, the source gives them in different places.

How the values were obtained:
[1] = system: T1, non-glycated (HSA) and glycated (gHSAFRC) human serum albumin, Sudlow's site I and II; assay: Binding of fluorescent site-marker probes to glycated versus non-glycated albumin (fluorimetric titration)
T1 construct: human serum albumin (HSA, Lot No. 8234H) with fatty acids (fraction V) was purchased from MP Biomedicals LLC; purchased MP Biomedicals LLC (Illkirch, France) Lot No. 8234H (a lot number; no catalogue number given)

plasma protein = conditions: cited from earlier work
[2] = albumin 5 × 10^−6 mol∙L^−1 titrated with probe, 37 °C, Figure 7

SMILES | probe fluorescence / binding with gHSAFRC compared with HSA [1, 2] | also measured
CN(C)c1cccc2c(S(N)(=O)=O)cccc12 [DNSA, 5-dimethylaminonaphthalene-1-sulfonamide] | no significant difference in the fluorescence intensity | 
CCCCc1nc(Cl)c(CO)n1Cc1ccc(-c2ccccc2-c2nn[nH]n2)cc1 [LOS, (2-butyl-4-chloro-1-{[2′-(1H-tetrazol-5-yl)-4-biphenylyl]methyl}-1H-imidazol-5-yl)methanol] |  | bound with plasma protein (plasma protein): 98.6–98.8%
CC(=O)CC(c1ccccc1)c1c(O)c2ccccc2oc1=O (centres unmarked) [WAR, warfarin] |  | probe fluorescence / binding with gHSAFRC compared with HSA [1]: stronger than with non-glycated albumin
CN(C)c1cccc2c(S(=O)(=O)N[C@@H](CCC(N)=O)C(=O)O)cccc12 [dGln, dansyl-L-glutamine] | stronger for glycated than non-modified albumin | 
CN(C)c1cccc2c(S(=O)(=O)N3CCC[C@H]3C(=O)O)cccc12 [dPro, N-dansyl-L-proline] | stronger for glycated than non-modified albumin | 
